Test results taken from paper PMC10227015, “From a drug repositioning to a structure-based drug design approach to tackle acute lymphoblastic leukemia” (Nature Communications, 2023).
Where “and” joins values, the source holds several entries; their conditions need not be identical. Equal values may be shown once.

Legend:
[1] = system: human CCRF-CEM T-ALL cell line expressing luciferase; assay: Systemic leukemia model: NSG mice inoculated intravenously with luciferase CCRF-CEM cells; format: in vivo, mouse; set-up: hCD45+ populations determined by flux cytometry at day 21 of CCRF-CEM bearing mice / Whole body radiance of CCRF-CEM bearing mice: unit not given here; conditions: for effect on leukemic progression: dT 1.5 g/kg, OR0642 40 mg/kg IP; for Whole body radiance of CCRF-CEM bearing mice / hCD45+ populations determined by flux cytometry at day 21 of CCRF-CEM bearing mice / Whole body radiance at day 21 of CCRF-CEM bearing mice / Survival days of CCRF-CEM bearing mice: dT 1,5 g/Kg, OR0642 40 mg/Kg; for hCD45+ populations determined by flux cytometry at day 21 of CCRF-CEM bearing mice: day 21, blood; for Whole body radiance at day 21 of CCRF-CEM bearing mice: day 21, individual mice (Figure 4d);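 as to hCD45+ populations determined by flux cytometry at day 21 of CCRF-CEM bearing mice: Bead-counted human ALL blasts per volume of peripheral blood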
CCRF-CEM cells = assay: Nucleotides pool measurements; format: cell-based, human; conditions: 24 h, dT 200 µM, dC 1 µM, OR0642 1 µM
Protocol: CCRF-CEM cells exposed to compounds (dT (200 µM) and/or dC, OR0642, DI-87 and DI-39 (1 µM)) for 0 and 24 h were washed, counted and pelleted. Pellets were extracted with the cold sampling solution (acetonitrile (4) / methanol (4)/125 mM formic acid (2)), vortexed and placed 1 h at −20 °C. Then centrifuged and evaporated. Central metabolites were separated on an ionic chromatography column IonPac AS11 (250 × 2 mm i.d.; Dionex). Solvent used was KOH at a flow rate of 350 µl/min. The column was then equilibrated for 6 min at the initial conditions before the next sample was analyzed. The volume of injection was 15 µl. High-resolution experiments were performed with an ICS5000+, ion chromatography system (Dionex) system coupled to an Orbitrap Qexactive+ mass spectrometer (Thermo Fisher Scientific, Waltham) equipped with a heated electrospray ionization probe. MS analyses were performed in negative FTMS mode at a resolution of 140,000 (at 400 m/z) in full-scan mode, with the following source parameters: 325 °C for the capillary temperature, 380 °C for the source heater temperature, 50 a.u. (arbitrary unit) for the sheath gas flow rate, 5 a.u. for the auxiliary gas flow rate, 50% for the S-Lens RF level, and 2.75 kV for the source voltage. Metabolites were determined by extracting the exact mass with a tolerance of 5 ppm. Each experiment was performed three times.

human c-KIT = molecular target: T1, human c-KIT (Homo sapiens, UniProt P10721); assay: c-KIT cellular assay: Ba/F3 proliferation with SCF, without IL3; format: cell-based; conditions: for Cell proliferation of the IL-3 dependent Ba/F3 cell line Mean (% prolif): SCF, no IL3, 48 h; for IC50 ratio of IL3/SCF (unspecific/c-KIT): Ba/F3 expressing WT human c-KIT, 72 h
T1 construct: expressed in transfected cells; host or cells: Ba/F3 (murine IL3-dependent pro-B cell line)
T1 sequence (P10721 26-976): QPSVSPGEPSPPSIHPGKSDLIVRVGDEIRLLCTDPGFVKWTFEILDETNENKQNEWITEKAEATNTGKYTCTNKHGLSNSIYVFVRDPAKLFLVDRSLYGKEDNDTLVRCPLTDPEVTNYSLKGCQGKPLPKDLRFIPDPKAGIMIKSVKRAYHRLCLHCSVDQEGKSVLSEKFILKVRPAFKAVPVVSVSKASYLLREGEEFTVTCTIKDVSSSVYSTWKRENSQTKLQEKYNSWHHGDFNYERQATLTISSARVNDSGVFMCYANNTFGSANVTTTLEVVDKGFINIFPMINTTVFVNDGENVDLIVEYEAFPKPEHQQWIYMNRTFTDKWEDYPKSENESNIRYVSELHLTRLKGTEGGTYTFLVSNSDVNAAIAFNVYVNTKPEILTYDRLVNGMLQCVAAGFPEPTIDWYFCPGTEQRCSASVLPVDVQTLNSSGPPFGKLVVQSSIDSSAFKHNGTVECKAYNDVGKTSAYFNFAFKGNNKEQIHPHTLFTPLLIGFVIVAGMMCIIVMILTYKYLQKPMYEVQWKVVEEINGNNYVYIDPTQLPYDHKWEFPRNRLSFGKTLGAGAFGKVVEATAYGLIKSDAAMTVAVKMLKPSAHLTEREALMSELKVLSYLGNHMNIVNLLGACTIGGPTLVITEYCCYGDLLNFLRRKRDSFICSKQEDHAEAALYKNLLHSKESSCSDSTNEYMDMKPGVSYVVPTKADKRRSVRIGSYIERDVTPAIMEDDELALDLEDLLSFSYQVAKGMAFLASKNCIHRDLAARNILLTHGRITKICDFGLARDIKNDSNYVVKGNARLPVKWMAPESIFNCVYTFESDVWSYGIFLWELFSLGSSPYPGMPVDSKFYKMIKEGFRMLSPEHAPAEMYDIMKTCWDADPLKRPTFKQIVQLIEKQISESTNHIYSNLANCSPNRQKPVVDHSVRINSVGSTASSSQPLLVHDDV
Protocol: The generation of Ba/F3 cells expressing wild-type human c-KIT has been previously described by us[55],[56]. For the assay of Ba/F3 cell proliferation, plates were seeded with a total of 10,000 cells per well. Cells were supplemented, or not, with either 0.1% IL3 or 250 ng/ml murine SCF. IL3 was obtained from conditioned medium from X63-omIL-3 cells (obtained from Fritz Melchers laboratory (Berlin, Germany)) and murine SCF, which activates c-KIT, was purified from the conditioned medium of SCF-producing CHO cells. Cells were supplemented with compounds at varying concentrations (final 0.1% DMSO). […] The amount of reduced dye formed by metabolically active cells was quantified by its fluorescence measured at 560 nm (excitation) and 590 nm (emission) in a microplate reader (FLUOstar Omega, BMG Labtech). A blank well without cells was used as a background control. Each experiment was performed at least three times (with technical triplicates) and data are presented as the mean ± SD.

dCK-C3S-S74E = assay: Isothermal titration calorimetry (ITC); format: binding, human; conditions: 25 °C
Sequence of dCK-C3S-S74E (P27707 whole entry S74E, form open): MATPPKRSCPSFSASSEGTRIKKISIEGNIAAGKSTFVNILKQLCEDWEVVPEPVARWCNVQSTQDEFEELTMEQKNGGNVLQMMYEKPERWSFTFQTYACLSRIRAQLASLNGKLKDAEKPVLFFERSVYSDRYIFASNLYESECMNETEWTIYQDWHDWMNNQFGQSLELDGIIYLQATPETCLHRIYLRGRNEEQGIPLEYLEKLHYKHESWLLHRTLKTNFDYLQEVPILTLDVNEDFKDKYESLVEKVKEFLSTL
Source text: BL21 pRIL Escherichia coli cells were transformed with dCK-plasmids (dCK-C4S-S74E (for crystallization assays) and dCK-C3S-S74E (for TSA, enzymatic and ITC assays)). Protein dCK-C4S-S74E used for crystallization assays contained four mutations in order to generate better quality crystals (four solvent-exposed cysteine residues were mutated to serine; C9S, C45S, C59S and C146S). Protein dCK-C3S-S74E used for other assays contained only three mutated cysteines. The S74E mutation mimics the phosphorylated state of this serine, which favors the open conformation of the enzyme, making it competent for nucleoside binding[45] to evaluate the binding affinity with compounds. E. coli cells were grown in LB media containing 100 μg/ml ampicillin and 34 μg/ml chloramphenicol at 18 °C for 20 h after induction with 1 mM IPTG.
For binding assays (TSA, ITC and crystallography) cells were re-suspended in 50 mM TRIS, pH 8, 500 mM NaCl, 30 mM imidazole and 10% glycerol buffer and one EDTA free anti-protease tablet was added (Roche). After sonication and centrifugation (30,000 × g), the supernatant was loaded on a 5 ml HisTrap FF column (GE healthcare) pre-equilibrated with resuspension buffer. Protein was then eluted by resuspension buffer containing 500 mM imidazole. Protein eluted fractions were mixed and concentrated. […]

Row | Cell proliferation of the IL-3 dependent Ba/F3 cell line Mean (% prolif) (human c-KIT; 3.7 nM) [%] | Cell proliferation of the IL-3 dependent Ba/F3 cell line Mean (% prolif) (human c-KIT; 11 nM) [%] | Cell proliferation of the IL-3 dependent Ba/F3 cell line Mean (% prolif) (human c-KIT; 33 nM) [%] | Cell proliferation of the IL-3 dependent Ba/F3 cell line Mean (% prolif) (human c-KIT; 99 nM) [%] | Cell proliferation of the IL-3 dependent Ba/F3 cell line Mean (% prolif) (human c-KIT; 296 nM) [%] | Cell proliferation of the IL-3 dependent Ba/F3 cell line Mean (% prolif) (human c-KIT; 889 nM) [%] | Cell proliferation of the IL-3 dependent Ba/F3 cell line Mean (% prolif) (human c-KIT; 2667 nM) [%] | Cell proliferation of the IL-3 dependent Ba/F3 cell line Mean (% prolif) (human c-KIT; 8000 nM) [%] | Cell proliferation of the IL-3 dependent Ba/F3 cell line Mean (% prolif) (human c-KIT; 24000 nM) [%] | IC50 ratio of IL3/SCF (unspecific/c-KIT) (human c-KIT) | Kd (dCK-C3S-S74E) [nM] | Compound | effect on leukemic progression [1] | effect on nucleotide pools (CCRF-CEM cells) | also measured
1 | – | – | – | – | – | – | – | – | – | – | – | CCCN(c1nc(-c2nc(N)cc(N)n2)cs1)c1cc(-c2ccc(S(=O)(=O)N3CCN(C)CC3)cc2C(F)(F)F)ccc1C [OR0642] | did not show any antiproliferative effect | did not affect the nucleotide pools | Whole body radiance of CCRF-CEM bearing mice ([1]; day 0 (before treatment), individual mice, 40 mg/kg): 1948 and 1585 and 1112 and 1289 and 1143 and 2120 and 1563 and 1766 and 1453; Whole body radiance of CCRF-CEM bearing mice ([1]; day 7, individual mice, 40 mg/kg): 5130 and 1470 and 1540 and 826 and 1990 and 2090 and 4750 and 1530 and 2610; Whole body radiance of CCRF-CEM bearing mice ([1]; day 14, individual mice, 40 mg/kg): 392000 and 24500 and 395000 and 489000 and 137000 and 327000 and 469000 and 291000 and 53900; hCD45+ populations determined by flux cytometry at day 21 of CCRF-CEM bearing mice ([1]; individual mice, 40 mg/kg): 216.1 and 194.2 and 86.4 and 80.1 and 74.9 and 211.8 and 120.7 and 113.3 and 112.2; Whole body radiance of CCRF-CEM bearing mice ([1]; day 21, individual mice (Figure 4b), 40 mg/kg): 2070000 and 4600000 and 1490000 and 6950000 and 1760000 and 5460000 and 5470000 and 5010000 and 3010000; Whole body radiance at day 21 of CCRF-CEM bearing mice ([1]; 40 mg/kg): 2180000 and 4850000 and 1550000 and 7340000 and 1840000 and 5680000 and 5590000 and 4590000 and 3150000; Survival days of CCRF-CEM bearing mice ([1]; individual mice, 40 mg/kg): 25 days and 26 days and 27 days
2 | – | – | – | – | – | – | – | – | – | – | – | Cc1cn([C@H]2C[C@H](O)[C@@H](CO)O2)c(=O)[nH]c1=O [dT, thymidine] | scarcely reduced leukemic progression | increased the dTTP pool | Whole body radiance of CCRF-CEM bearing mice ([1]; day 0 (before treatment), individual mice): 2430 and 1179 and 1269 and 2044 and 1251 and 1181 and 1090; Whole body radiance of CCRF-CEM bearing mice ([1]; day 7, individual mice): 1580 and 1140 and 2350 and 2150 and 1440 and 1960 and 2210; Whole body radiance of CCRF-CEM bearing mice ([1]; day 14, individual mice): 94100 and 37700 and 196000 and 167000 and 8080 and 182000 and 106000; hCD45+ populations determined by flux cytometry at day 21 of CCRF-CEM bearing mice ([1]; individual mice): 24.2 and 22.7 and 31.6 and 8.9 and 23.4 and 14.2; Whole body radiance of CCRF-CEM bearing mice ([1]; day 21, individual mice (Figure 4b)): 1150000 and 1620000 and 2390000 and 1910000 and 1880000 and 520000 and 953000; Whole body radiance at day 21 of CCRF-CEM bearing mice [1]: 1720000 and 2530000 and 2010000 and 1980000 and 545000 and 1000000 and 1210000; Survival days of CCRF-CEM bearing mice ([1]; individual mice): 28 days and 29 days and 30 days
3 | 97.2 | 96.0 | 97.1 | 91.8 | 94.5 | 86.6 | 76.3 | 48.8 | 6.7 | 2.7 | 37 | Cc1ccc(NC(=O)c2ccc(CN3CCN(C)CC3)cc2)cc1Nc1nc(-c2nc(N)cc(N)n2)cs1 [dCKi2, N-(3-((4-(4,6-diaminopyrimidin-2-yl)thiazol-2-yl)amino)-4-methylphenyl)-4-((4-methylpiperazin-1-yl)methyl)benzamide] | – | – | –
4 | 98.5 | 97.1 | 99.7 | 87.3 | 83.7 | 66.8 | 24.0 | 0.4 | 0.35 | 7.6 | 128 | Cc1ccc(NC(=O)c2ccc(CN3CCN(C)CC3)cc2)cc1Nc1nc(-c2nccc(N)n2)cs1 [dCKi1] | – | – | –
